Measurements taken from patent publication US20260053171A1, “METHANOGEN INHIBITORS” (AGRIZERONZ LIMITED PARTNERSHIP, priority 2022, published 2026).

Experiments:
[1] = test system: methane emissions from sheep; experiment: Example 1: in vivo study on sheep methane emissions (respiration chambers, once-daily drench); details: once-daily drenching, 121.3 mg/day, average of 3 sheep
Description: The trial for testing the effects of Compound 19 on methane emissions from sheep over a 96 hour period in methane measurement chambers was approved by the Grasslands Animal Ethics Committee, and the use of the compounds in animals by the New Zealand Food Safety Authority, as required under ACVM legislation. Three sheep were used for each Compound 19 treatment group. The animals received a general-purpose diet (GP) at 1.5× maintenance energy requirements throughout the trials consisting of 500 g hay, 100 g soy bean meal, 290 g barley, 100 g molasses and 10 g mineral mix. During the time in the respiration chambers the animals had free access to water, with the feed offered twice a day at approximately 9:00 and 16:00 h in equal amounts. Feed refusals were weighed.
The animals were adapted to GP diet for 14 days prior to entering the methane measurement chambers. Rumen contents were sampled by stomach tubing before methane emissions were measured in the respiration chambers and the day after being released from the chambers to allow for the future examination of any effects on volatile fatty acids (VFAs). Rumen samples from stomach tubing were immediately subsampled for short chain fatty acid (SCFA) analysis (1.8 ml). The samples were centrifuged (20,000 g, 10 min, 4° C.). […] SCFA were analysed by a HP 6890 gas chromatograph (Attwood et al., 1998).
After the 14-day acclimatisation period, methane emissions were measured in open circuit respiration chambers as described in Chapter 1 of the technical manual on respiration chamber design (http://www.globalresearchalliance.org/wp-content/uploads/2012/03/GRA-MAN-Facility-BestPract-2012-ch13.pdf). Dry matter intake (DMI, kg/d) was recorded during methane measurements from the weight difference of feed offered and refused. […]
Methane gas outputs for the 96-hour period (first 24 hours for background measurements (Period 1), followed by three days of dosing) in open circuit respiration chambers were determined and are summarised in Table 1.

female Swiss mice = experiment: Toxicity testing in mice according to OECD 423; format: in vivo; details: 300 mg/kg, single dose by oral gavage in corn oil, observed 14 days
Description: The potential toxicology of Compound 19 was tested according to OECD 423. Mice testing used two groups with three mice (female Swiss mice, non-pregnant), all at approximately 8-9 weeks of age. On the day of testing, food was withdrawn 1-2 hours prior to dosing. Following fasting, the animals were weighed and the test substances administered. Access to food was resumed 1-2 hours after administration of the compounds. The compounds were administered in a single dose by oral gavage in corn oil (maximum of 0.3 ml per dose) at the selected dose and the time recorded. The mice were observed individually after dosing at least once during the first 30 minutes, periodically over the first 24 hours, with special attention given to the first 4 hours, and then daily thereafter for a total of 14 days. The mice were weighed every seven days (0, 7 and 14 days). All observations were systematically recorded for each individual animal. These observations included (if present): tremors, convulsions, salivation, diarrhoea, lethargy, sleep, coma, and changes in fur, skin, eyes, mucus membranes, respiration, motor activity and behaviour.

[2] = test system: methane production in rumen fluid; experiment: Rumen in vitro (RIV) assay, methane production from rumen fluid incubations; format: cell-based, cattle; details: Bos taurus, read-out: RIV % methane reduction +/− SD
How it was run: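 Rumen fluid from two fistulated cattle diluted 12 ml in 48 ml buffer with ryegrass substrate, incubated in sealed bottles at 39° C for 24-48 h in duplicate. Inhibitors added in DMF (stocks 1000-fold above highest assay level); total gas, methane and H2 measured automatically; 30 μM BES positive control, no-inhibitor negative control.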

[3] = test system: methane emissions from sheep; experiment: Example 2: in vivo study on sheep methane emissions (respiration chambers, dosing in feed twice daily); details: for CH4 Inhibition [%] Average Days 1-3: Average Days 1-3, dose mg/day: Compound 60 412, 69 311, 67 414, 64 344
Description: (§1) The trial for testing the effects of Compound 60, Compound 69, Compound 67 and Compound 64 on methane emissions from sheep over a 96-hour period in methane measurement chambers was approved by the Grasslands Animal Ethics Committee. Three sheep were used for each Compound 60 and Compound 69 treatment group and six sheep were used for each Compound 67 and Compound 64 treatment group. The animals received a general-purpose diet (GP) at 1.5× maintenance energy requirements throughout the trials consisting of 500 g hay, 100 g soybean meal, 290 g barley, 100 g molasses and 10 g mineral mix. During the time in the respiration chambers the animals had free access to water, with the feed offered twice a day at approximately 9:00 and 16:00 h in equal amounts. Feed refusals were weighed.
(§2) The animals were adapted to GP diet for 14 days prior to entering the methane measurement chambers. Rumen contents were sampled by stomach tubing before methane emissions were measured in the respiration chambers and the day after being released from the chambers to allow for the future examination of any effects on volatile fatty acids (VFAs). Rumen samples from stomach tubing were immediately subsampled for short chain fatty acid (SCFA) analysis (1.8 ml). The samples were centrifuged (20,000 g, 10 min, 4° C.). An aliquot of 0.9 ml of the supernatant was collected into 0.1 ml of internal standard (19.8 mM ethylbutyrate in 20% v/v phosphoric acid) for SCFA analysis and stored at −20° C. SCFA samples were thawed and centrifuged (20,000 g, 10 min, 4° C.) and 800 μl of the supernatant was collected into a crimp cap glass vial. SCFA were analysed by a HP 6890 gas chromatograph (Attwood et al., 1998).
After the 14-day acclimatisation period, methane emissions were measured in open circuit respiration chambers as described in Chapter 1 of the technical manual on respiration chamber design (http://www.globalresearchalliance.org/wp-content/uploads/2012/03/GRA-MAN-Facility-BestPract-2012-ch13.pdf). Dry matter intake (DMI, kg/d) was recorded during methane measurements from the weight difference of feed offered and refused. The first day in the chambers (24-hour period; Period 1) served as a control for each animal. For the next three days the sheep received Compound 60, Compound 69, Compound 67 and Compound 64 at 412, 311, 414 and 344 mg per day, respectively (72-hour period; Period 2).
Methane gas outputs for the 96-hour period (first 24 hours for background measurements (Period 1), followed by three days of dosing (Period 2)) in open circuit respiration chambers were determined and are summarised in Table 2.

[4] = test system: methane emissions from cattle; experiment: Example 3: in vivo cattle trial on methane emissions (respiration chambers, dosing in feed twice daily)
Description: as §1, with “various doses of” for “Compound 60, Compound 69, Compound 67 and”, “cattle” for “sheep”, “four 48-hour periods” for “a 96-hour period”, “Four cattle (Friesian dairy heifers, approximately 400 kg)” for “Three sheep”, “of two” for “Compound 60 and Compound 69 treatment group and six sheep were used for each Compound 67 and”, “groups.” for “group.”
as §2
After the 14-day acclimatisation period, methane emissions were measured in open circuit respiration chambers as described in Chapter 1 of the technical manual on respiration chamber design (http://www.globalresearchalliance.org/wp-content/uploads/2012/03/GRA-MAN-Facility-BestPract-012-ch13.pdf). Dry matter intake (DMI, kg/d) was recorded during methane measurements from the weight difference of feed offered and refused. Chamber measurements were made once a week for five weeks. The first period in the chambers (48-hour period; Period 1) served as a control for each animal. […]
Methane gas outputs for the four 48-hour treatment periods (Periods 2-5) in open circuit respiration chambers were determined and are summarised in Table 1. There were little or no feed refusals.

[5] = Day 1, dose mg/day: Compound 60 412, 69 311, 67 414, 64 344
[6] = Day 2, dose mg/day: Compound 60 412, 69 311, 67 414, 64 344
[7] = Day 3, dose mg/day: Compound 60 412, 69 311, 67 414, 64 344

SMILES	CH4 Inhibition [%] ([1]; Day 1)	CH4 Inhibition [%] ([1]; Day 2)	CH4 Inhibition [%] ([1]; Day 3)	adverse effects (OECD 423) (female Swiss mice)	inhibition at 2 µM [2]	inhibition at 10 µM [2]	inhibition at 50 µM [2]	CH4 Inhibition [%] Average Days 1-3 [3]	CH4 Inhibition [%] [3, 5]	CH4 Inhibition [%] [3, 6]	CH4 Inhibition [%] [3, 7]	CH4 Inhibition [%] ([4]; High dose group, Period 2, 150 mg/day)	CH4 Inhibition [%] ([4]; High dose group, Period 3, 450 mg/day)	CH4 Inhibition [%] ([4]; High dose group, Period 4, 450 mg/day)	CH4 Inhibition [%] ([4]; High dose group, Period 5, 450 mg/day)	CH4 Inhibition [%] ([4]; Low dose group, Period 2, 50 mg/day)	CH4 Inhibition [%] ([4]; Low dose group, Period 3, 300 mg/day)	CH4 Inhibition [%] ([4]; Low dose group, Period 4, 300 mg/day)	CH4 Inhibition [%] ([4]; Low dose group, Period 5, 300 mg/day)
O=C(O)CCC(=O)N1N=C(c2ccc(-c3ccc(Cl)cc3)cc2)CC1c1ccc2nccnc2c1 (stereo not shown) [Compound 19, 4-(3-(4′-Chloro-[1,1′-biphenyl]-4-yl)-5-(quinoxalin-6-yl)-4,5-dihydro-1H-pyrazol-1-yl)-4-oxobutanoic acid]	−6.5%	8.9%	11.4%	No adverse effects	5.3 ± 0.6%	83.7 ± 0.6%	91.1 ± 0.3%	–	–	–	–	–	–	–	–	–	–	–	–
O=C(O)c1cccc(N2N=C(c3ccc(Cl)cc3)CC2c2ccc3nccnc3c2)c1 (stereo not shown) [Compound 60, 3-(3-(4-Chlorophenyl)-5-(quinoxalin-6-yl)-4,5-dihydro-1H-pyrazol-1-yl)benzoic acid]	–	–	–	–	16.1 ± 0.5%	90.9 ± 1.2%	97.7 ± 0.6%	26.2%	26.3%	20.9%	31.2%	–	–	–	–	–	–	–	–
CC(C)Oc1ccc(-c2ccc(C3=NN(C(=O)CCC(=O)O)C(c4ccc5nccnc5c4)C3)cc2)cc1 (stereo not shown) [Compound 64, 4-(3-(4′-Isopropoxy-[1,1′-biphenyl]-4-yl)-5-(quinoxalin-6-yl)-4,5-dihydro-1H-pyrazol-1-yl)-4-oxobutanoic acid]	–	–	–	–	81%	97.5%	–	85.8%	81.9%	85.6%	89.8%	1.9 ± 5.2%	15.6 ± 11.7%	0.5 ± 5.8%	5.6 ± 3.0%	−4.7 ± 2.9%	20.2 ± 9.8%	2.5 ± 4.6%	−1.8 ± 4.0%
O=C(O)CCC(=O)N1N=C(c2ccc(-c3ccc(OC(F)(F)F)c(F)c3)cc2)CC1c1ccc2nccnc2c1 (stereo not shown) [Compound 67, 4-(3-(3′-Fluoro-4′-(trifluoromethoxy)-[1,1′-biphenyl]-4-yl)-5-(quinoxalin-6-yl)-4,5-dihydro-1H-pyrazol-1-yl)-4-oxobutanoic acid]	–	–	–	–	51.8 ± 8.4%	92.4 ± 1.5%	–	36.5%	24.2%	36.7%	48.6%	–	–	–	–	–	–	–	–
CC(C)S(=O)(=O)NC(=O)CCC(=O)N1N=C(c2ccc(-c3ccccc3)cc2)CC1c1ccc2nccnc2c1 (stereo not shown) [Compound 69, 4-(3-([1,1′-Biphenyl]-4-yl)-5-(quinoxalin-6-yl)-4,5-dihydro-1H-pyrazol-1-yl)-N-(isopropylsulfonyl)-4-oxobutanamide]	–	–	–	–	37.6 ± 5.6%	92.8 ± 1.8%	–	23.5%	11.9%	26.3%	32.4%	–	–	–	–	–	–	–	–
